How the values were obtained:
ABUTH [1] = assay: Post-emergence herbicidal action against ABUTH; assay type: in vivo, Abutilon theophrasti; conditions: dosage 20 g/ha, visual assessment about 3 weeks after treatment vs untreated controls
Procedure, shortened: (§1)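 Herbicidal effect was scored visually in percent after about 3 weeks in the greenhouse. Plants had been raised in sandy loam and treated post-emergence at the one-leaf stage with formulated compound at 600 to 800 l/ha water plus 0.2% wetting agent.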

ALOMY [2] = assay: Post-emergence herbicidal action against ALOMY; assay type: in vivo, Alopecurus myosuroides; conditions: visual assessment about 3 weeks after treatment vs untreated controls
Procedure, shortened: as §1

PHBPU = assay: Post-emergence herbicidal action against PHBPU; assay type: in vivo, Pharbitis purpurea
Procedure, shortened: as §1

POLCO = assay: Pre-emergence herbicidal action against POLCO; assay type: in vivo, Polygonum convolvulus; conditions: dosage 80 g/ha
Procedure, shortened: (§2)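 Herbicidal effect was assessed 3 weeks after treatment by visual comparison with untreated controls, 100% denoting dead plants. Aqueous WP or EC preparations had been applied at 600 to 800 l/ha with 0.2% wetting agent to the soil covering freshly sown seeds.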

VERPE [3] = assay: Post-emergence herbicidal action against VERPE; assay type: in vivo, Veronica persica; conditions: 20 g/ha
Procedure, shortened: as §1

AMARE [4] = assay: Post-emergence herbicidal action against AMARE; assay type: in vivo, Amaranthus retroflexus; conditions: 20 g/ha, visual assessment about 3 weeks after treatment, 100% = plants have died, 0% = like control plants
Procedure, shortened: as §1

LOLRI = assay: Pre-emergence herbicidal action against LOLRI; assay type: in vivo, Lolium rigidum; conditions: 80 g/ha
Procedure, shortened: as §2

AMARE [5] = assay: Pre-emergence herbicidal action against AMARE; assay type: in vivo, Amaranthus retroflexus
Procedure, shortened: as §2

VIOTR [6] = assay: Pre-emergence herbicidal action against VIOTR; assay type: in vivo, Viola tricolor
Procedure, shortened: as §2

SETVI [7] = assay: Post-emergence herbicidal action against SETVI; assay type: in vivo, Setaria viridis
Procedure, shortened: as §1

ECHCG [8] = assay: Pre-emergence herbicidal action against ECHCG; assay type: in vivo, Echinochloa crus-galli; conditions: 80 g/ha
Procedure, shortened: as §2

VERPE [9] = assay: Pre-emergence herbicidal action against VERPE; assay type: in vivo, Veronica persica; conditions: dosage 80 g/ha
Procedure, shortened: as §2

ABUTH [10] = assay: Pre-emergence herbicidal action against ABUTH; assay type: in vivo, Abutilon theophrasti
Procedure, shortened: as §2

ECHCG [11] = assay: Post-emergence herbicidal action against ECHCG; assay type: in vivo, Echinochloa crus-galli
Procedure, shortened: as §1

MATIN = assay: Pre-emergence herbicidal action against MATIN; assay type: in vivo, Matricaria inodora
Procedure, shortened: as §2

ALOMY [12] = assay: Pre-emergence herbicidal action against ALOMY; assay type: in vivo, Alopecurus myosuroides; conditions: pre-emergence
Procedure, shortened: as §2

DIGSA [13] = assay: Post-emergence herbicidal action against DIGSA; assay type: in vivo, Digitaria sanguinalis; conditions: 20 g/ha
Procedure, shortened: as §1

VIOTR [14] = assay: Post-emergence herbicidal action against VIOTR; assay type: in vivo, Viola tricolor; conditions: 20 g/ha
Procedure, shortened: as §1

SETVI [15] = assay: Pre-emergence herbicidal action against SETVI; assay type: in vivo, Setaria viridis; conditions: dosage 80 g/ha
Procedure, shortened: as §2

DIGSA [16] = assay: Pre-emergence herbicidal action against DIGSA; assay type: in vivo, Digitaria sanguinalis
Procedure, shortened: as §2

AVEFA = assay: Pre-emergence herbicidal action against AVEFA; assay type: in vivo, Avena fatua; conditions: Avena fatua, 504 h; 80 g/ha, pre-emergence
Procedure, shortened: as §2

[17] = 80 g/ha, scored visually after 3 weeks vs untreated controls (100% = plants have died, 0% = like control plants)

Question: What does the source list for `Cc1c(C(=O)Nc2nnnn2C)ccc(C(F)F)c1C(=O)NCC1CC1` [Example 1-47]?
Answer: Post-emergence action against ABUTH in % (ABUTH [1]): 80%; Post-emergence action against ALOMY in % (ALOMY [2]; dosage 5 g/ha): 80%; Post-emergence action against ALOMY in % (ALOMY [2]; dosage 20 g/ha): 90%; Post-emergence action against PHBPU in % (PHBPU; dosage 5 g/ha): 80%; Post-emergence action against PHBPU in % (PHBPU; dosage 20 g/ha): 90%; Pre-emergence action against POLCO in % (POLCO): 100%; Post-emergence action against VERPE in % (VERPE [3]): 80%; Post-emergence action at 20 g/ha against AMARE in % (AMARE [4]): 90%; Pre-emergence action against LOLRI in % (LOLRI): 80%; Pre-emergence action against AMARE in % (AMARE [5]; 20 g/ha, scored visually after 3 weeks vs untreated controls, 100% = plants have died, 0% = like control plants): 100%; Pre-emergence action against AMARE in % (AMARE [5]; [17]): 100%; Pre-emergence action against VIOTR in % (VIOTR [6]; dosage 80 g/ha): 100%; Post-emergence action against SETVI in % (SETVI [7]; dosage 20 g/ha): 80%; Pre-emergence action against ECHCG in % (ECHCG [8]): 100%; Pre-emergence action against VERPE in % (VERPE [9]): 100%; Pre-emergence action against ABUTH (herbicidal activity) (ABUTH [10]; [17]): 100%; Pre-emergence action against ABUTH (herbicidal activity in percent) (ABUTH [10]; dosage 20 g/ha, scored visually after 3 weeks vs untreated controls, 100% = plants have died, 0% = like control plants): 100%; Post-emergence action against ECHCG in % (ECHCG [11]; dosage 5 g/ha): 90%; Post-emergence action against ECHCG in % (ECHCG [11]; dosage 20 g/ha): 90%; Pre-emergence action against MATIN in % (MATIN; dosage 20 g/ha): 80%; Pre-emergence action against MATIN in % (MATIN; dosage 80 g/ha): 100%; Pre-emergence action against ALOMY (herbicidal activity) (ALOMY [12]; [17]): 90%; Post-emergence action against DIGSA (DIGSA [13]): 90%; Post-emergence action against VIOTR in % (VIOTR [14]): 80%; Pre-emergence action against SETVI in % (SETVI [15]): 100%; Pre-emergence action against DIGSA in % (DIGSA [16]; dosage 20 g/ha): 100%; Pre-emergence action against DIGSA in % (DIGSA [16]; dosage 80 g/ha): 100%

Question: For `CCn1nnnc1NC(=O)c1ccc(Br)c(C(=O)NC2CC2)c1Br` [Example 2-343], which pest or weed control at 20 g/ha (ABUTH [1]; Abutilon theophrasti, 504 h) is on record?
Answer: Its pest or weed control at 20 g/ha is 80%.

Question: And the pest or weed control at 5 g/ha (ALOMY [2]; Alopecurus myosuroides, 504 h, dosage 5 g/ha)?
Answer: Its pest or weed control at 5 g/ha is 80%.

Question: And the pest or weed control at 20 g/ha (ALOMY [2]; Alopecurus myosuroides, 504 h, dosage 20 g/ha)?
Answer: Its pest or weed control at 20 g/ha is 100%.

Question: What about the pest or weed control at 80 g/ha (POLCO; Fallopia convolvulus, 504 h) of the same compound?
Answer: Its pest or weed control at 80 g/ha is 90%.

Question: What about the pest or weed control at 20 g/ha (AMARE [4]; Amaranthus retroflexus, 504 h) of the same compound?
Answer: Its pest or weed control at 20 g/ha is 100%.

Question: What about the pest or weed control at 80 g/ha (LOLRI; Lolium rigidum, 504 h) of the same compound?
Answer: The pest or weed control at 80 g/ha was 90%.

Question: And the pest or weed control at 20 g/ha (AMARE [5]; Amaranthus retroflexus, 504 h, 20 g/ha, scored visually after 3 weeks vs untreated controls, 100% = plants have died, 0% = like control plants)?
Answer: The pest or weed control at 20 g/ha was 100%.

Question: What about the pest or weed control at 80 g/ha (AMARE [5]; Amaranthus retroflexus, 504 h, 80 g/ha, scored visually after 3 weeks vs untreated controls, 100% = plants have died, 0% = like control plants) of the same compound?
Answer: Its pest or weed control at 80 g/ha is 100%.

Question: What about the pest or weed control at 20 g/ha (VIOTR [6]; Viola tricolor, 504 h, dosage 20 g/ha) of the same compound?
Answer: Its pest or weed control at 20 g/ha is 90%.

Question: What about the pest or weed control at 80 g/ha (VIOTR [6]; Viola tricolor, 504 h, dosage 80 g/ha) of the same compound?
Answer: Its pest or weed control at 80 g/ha is 100%.

Question: What about the pest or weed control at 5 g/ha (SETVI [7]; Setaria viridis, 504 h, dosage 5 g/ha) of the same compound?
Answer: Its pest or weed control at 5 g/ha is 90%.

Question: What about the pest or weed control at 20 g/ha (SETVI [7]; Setaria viridis, 504 h, dosage 20 g/ha) of the same compound?
Answer: The pest or weed control at 20 g/ha was 90%.

Question: And the pest or weed control at 80 g/ha (AVEFA)?
Answer: The pest or weed control at 80 g/ha was 100%.

Question: What about the pest or weed control at 80 g/ha (ECHCG [8]; Echinochloa crus-galli, 504 h) of the same compound?
Answer: Its pest or weed control at 80 g/ha is 90%.

Question: What about the pest or weed control at 80 g/ha (ABUTH [10]; Abutilon theophrasti, 504 h, 80 g/ha, scored visually after 3 weeks vs untreated controls (100% = plants have died, 0% = like control plants)) of the same compound?
Answer: The pest or weed control at 80 g/ha was 100%.

Question: What about the pest or weed control at 20 g/ha (MATIN; Tripleurospermum inodorum, 504 h, dosage 20 g/ha) of the same compound?
Answer: Its pest or weed control at 20 g/ha is 80%.

Question: What about the pest or weed control at 80 g/ha (MATIN; Tripleurospermum inodorum, 504 h, dosage 80 g/ha) of the same compound?
Answer: Its pest or weed control at 80 g/ha is 100%.

Question: And the pest or weed control at 80 g/ha (ALOMY [12]; Alopecurus myosuroides, 504 h, 80 g/ha, scored visually after 3 weeks vs untreated controls (100% = plants have died, 0% = like control plants))?
Answer: The pest or weed control at 80 g/ha was 90%.

Question: What about the pest or weed control at 20 g/ha (ALOMY [12]; Alopecurus myosuroides, 504 h, 20 g/ha, scored visually after 3 weeks, 100% = plants have died, 0% = like control plants) of the same compound?
Answer: Its pest or weed control at 20 g/ha is 80%.

Question: And the pest or weed control at 20 g/ha (VIOTR [14]; Viola tricolor, 504 h)?
Answer: The pest or weed control at 20 g/ha was 90%.

Question: And the pest or weed control at 80 g/ha (SETVI [15]; Setaria viridis, 504 h)?
Answer: The pest or weed control at 80 g/ha was 100%.
